US20060110789A1, “Methods to mediate polyketide synthase module effectiveness” (priority 2002, published 2006)

What was measured:
(5)M3+TE and (3)M3+TE = conditions: either module 3+TE derivative, previously shown; cited from earlier work
module 2+TE ((5)M2+TE) = target: T1, module 2+TE ((5)M2+TE) (Saccharopolyspora erythraea, UniProt Q03131+Q03133); conditions: NAC thioester substrate, shown earlier; cited from earlier work
T1 construct: The protein was, in each case, a single module of the DEBS PKS fused to the thioesterase (TE) termination region of module 6; first 39 amino acids of module 5 (N-ERL); made in house; host or cells: E. coli (BL21(DE3) with sfp)

module 6+TE ((5)M6+TE) = target: T2, module 6+TE ((5)M6+TE) (Saccharopolyspora erythraea, UniProt Q03133, DEL53-1503); conditions: NAC thioester substrate, shown earlier; cited from earlier work
T2 construct: The protein was, in each case, a single module of the DEBS PKS fused to the thioesterase (TE) termination region of module 6; first 39 amino acids of module 5 (N-ERL); made in house; host or cells: E. coli (BL21(DE3) with sfp)

module 5+TE ((5)M5+TE) = conditions: NAC thioester substrate at saturating concentration, shown earlier; cited from earlier work
[1] = tested on: (5)M2+TE, (5)M5+TE, and (5)M6+TE; conditions: Wu et al. 2000; cited from earlier work
[2] = tested on: DEBS module 5 ((5)M5+TE or (3)M5+TE); assay: Substrate transfer and elongation assay, acceptor DEBS module 5; format: biochemical
Method: (§1) Substrate transfer and elongation assays. Qualitative assays were performed with a diketide-ACP or diketide-PCP substrate either taken directly from the so phosphopantetheinlyation reaction or after further purification of the substrate. These assays were performed with 20 μM diketide-ACP/PCP substrate for 2 hours in the following reaction conditions: 1 μM acceptor module, 0.5 mM ^14C-methylmalonyl CoA, 4 mM NADPH in buffer C, 30° C. After quenching by addition of 250 μL EtOAc and vortexing, the products were extracted with 2×250 μL EtOAc, resolved on a silica gel TLC plate, and visualized on a Packard InstantImager.
(§2) The kinetics of substrate transfer at the module 2-module 3 interface followed by elongation and product release were examined as a function of the k60 μM and kcat/KM values of the overall reaction. The k60 μm values reported here represent the apparent overall rate of product formation at an initial substrate concentration of 60 μM. In many cases, the k60μm values approximate the maximal overall turnover rates, as determined by back calculating the KM value for the reactions. True saturation kinetics were not practical because of the technical limitations (e.g., solubility) and limited supply associated with high molecular weight substrates such as diketide-ACP and diketide-PCP. kcat/KM values were determined by competitive assay of the substrate of interest against a substrate with a known kcat/KM value, as previously described (Wu, et al., (2001) J. Am. Chem. Soc. 123, 6465-6474). […]
(§3) These reactions were quenched by the addition of 80 μL 12.5% SDS to 2 μL reaction mixture and immediate vortexing. […] After removing the organic solvents in vacuo, the residual products were then spotted onto a TLC plate (Baker-flex 250 uM silica gel), resolved in 60% EtOAc/40% hexanes, and the radioactive spots were visualized and quantified on a Packard InstantImager. […]

(5)M2+TE = target: T3, (5)M2+TE (Saccharopolyspora erythraea, UniProt Q03131+Q03133); assay: Substrate transfer and elongation assay, acceptor DEBS module 2; format: biochemical
T3 construct: The protein was, in each case, a single module of the DEBS PKS fused to the thioesterase (TE) termination region of module 6; first 39 amino acids of module 5 (N-ERL); made in house; host or cells: E. coli (BL21(DE3) with sfp)
Method: as §1, §2, §3

(5)M6+TE = target: T4, (5)M6+TE (Saccharopolyspora erythraea, UniProt Q03133, DEL53-1503); assay: Substrate transfer and elongation assay, acceptor DEBS module 6; format: biochemical
T4 construct: The protein was, in each case, a single module of the DEBS PKS fused to the thioesterase (TE) termination region of module 6; first 39 amino acids of module 5 (N-ERL); made in house; host or cells: E. coli (BL21(DE3) with sfp)
Method: as §1, §2, §3

[3] = tested on: DEBS module 3 ((3)M3+TE or (5)M3+TE); assay: Substrate transfer and elongation assay, acceptor DEBS module 3; format: biochemical; conditions: 20 μM substrate; FIG. 27 A: diketide-ACP2(2)+(3)M3+TE; B: diketide-ACP2(4)+(3)M3+TE; C: diketide-ACP4(4)+(5)M3+TE; D: diketide-ACP4(4)+(3)M3+TE
Method: as §1
as §2, with “The k60 μm values reported here represent the apparent overall rate of product formation at an initial substrate concentration of 60 μM.” left out

[4] = versus diketide-ACP4(4), stated jointly for modules 2 and 6

In the case of `CCC(O)C(C)C(=O)SCCNC(C)=O` (stereo not drawn) [2a], the “qualitative incorporation of NAC thioesters” value ((5)M3+TE and (3)M3+TE) is given as “readily incorporated and elongated”, the kcat (module 2+TE ((5)M2+TE)) is given as 0.0767 s⁻¹ and the kcat (module 6+TE ((5)M6+TE)) is given as 0.283 s⁻¹. For the same molecule, the “kcat (elongation rate constant)” value (module 5+TE ((5)M5+TE)) was 0.00417 s⁻¹ and the “qualitative turnover of NAC thioesters” value [1] was “substrates for the three modules”.

For “diketide-ACP4(Ø): diketide on isolated ACP4 domain without linker region”, the “qualitative transfer of diketide to module 5 (triketide lactone formation)” value ([2]; 20 μM substrate, FIG. 28 A: diketide-ACP4(4)+(5)M5+TE, B: diketide-ACP4(4)+(3)M5+TE, C: diketide-ACP2(4)+(5)M5+TE, D: diketide-ACP2(2)+(5)M5+TE) was “Formation of the expected triketide lactone was observed”, the k60μm ([2]; acceptor (3)M5+TE, FIG. 29 B) was 0.27 min⁻¹ and the k60μm ([2]; acceptor (5)M5+TE, FIG. 29 A) was 0.49 min⁻¹. For the same molecule, the “qualitative transfer of diketide to (5)M2+TE” value ((5)M2+TE; 20 μM substrate, 2 hours) was “observed”, the “drop of k60 μM when linker interactions are eliminated” value ((5)M2+TE; [4]) was “approximately 10 fold” and the “drop of kcat/KM when linker interactions are eliminated” value ((5)M2+TE; [4]) was 70-300 fold. The “qualitative transfer of diketide to (5)M6+TE” value ((5)M6+TE; 20 μM substrate, 2 hours) was “observed”, the “drop of k60 μM when linker interactions are eliminated” value ((5)M6+TE; [4]) was “approximately 10 fold” and the “drop of kcat/KM when linker interactions are eliminated” value ((5)M6+TE; [4]) was 70-300 fold. The “qualitative transfer of diketide to module 3 (triketide lactone formation)” value [3] was “not able to efficiently transfer substrates”.
